From US6987093B2 (priority 2001, dated 2006)
Converted amounts (≈) assume the structure as drawn. Read-outs that look alike come from different tables or passages of the source.

How the values were obtained:
[1] = test system: S. pneumoniae isolates; assay: Susceptibility (MIC) testing of trial S. pneumoniae isolates with PCR of resistance mechanism; assay type: cell-based, Streptococcus pneumoniae; settings: for MIC: Streptococcus pneumoniae
Excerpt: Samples of middle ear fluid were split for storage at a central laboratory and cultured locally. All pathogens isolated locally were subcultured and sent to a central laboratory for confirmation and susceptibility testing, performed by Kirby-Bauer disk-diffusion or MIC testing according to NCCLS standards.
Polymerase chain reaction (PCR) determination of resistance mechanisms in all the azithromycin-resistant pneumococci was done.
Cultures were taken for antimicrobial susceptibility testing and bacterial species were identified. Current NCCLS approved breakpoints for MICs and zone sizes were applied to all data irrespective of the breakpoint in use at the time of the study. The isolates from the clinical studies were sent to central laboratories for identification and susceptibility determination. The methods for agar diffusion disk tests are those recommended by NCCLS.
The susceptibility breakpoints for azithromycin were defined as follows: […]

[2] = test system: Streptococcus pneumoniae 02J1016; assay: Murine peritonitis model, Streptococcus pneumoniae; assay type: in vivo, mouse; settings: oral QD
[3] = test system: Streptococcus pneumoniae 02J1016; assay: Murine lung (pulmonary/pneumonia) infection model challenged with Streptococcus pneumoniae; assay type: in vivo, mouse
[4] = test system: Haemophilus influenzae 54A1100; assay: Gerbil middle ear (otitis media) infection model, ED50, H. influenzae 54A1100; assay type: in vivo; settings: oral QD; gerbil otitis media model
[5] = test system: S. pyogenes 02C0203; assay: MIC determination, S. pyogenes; assay type: cell-based, Streptococcus pyogenes; settings: listed as Clanthromycin
Method: (§1) MIC Determinations. Streptococcus pneumoniae, S. pyogenes, E. faecalis, and H. influenzae MICs were determined using the broth microdilution procedure recommended by the NCCLS. Test trays were incubated at 35C without carbon dioxide. For testing of streptococci, the cation-adjusted Mueller-Hinton broth was supplemented with 2–3% lysed horse blood. For testing H. influenzae, freshly prepared Haemophilus Test Medium broth was used.
(§2) Bacterial Strains. • S. pneumoniae 02J1016, serotype 3, originally isolated from blood culture (strain P 4241) (MLS- and penicillin-susceptible). • S. pyogenes 02C0203, ATCC 12384, group A, type 3 (MLS-susceptible). • E. faecalis 03A1085, vancomycin susceptible clinically derived strain. • H. influenzae 54A1100, (43095 ATCC Fulghum strain) non-serotype B strain originally isolated from otitis media (macrolide and penicillin susceptible). • H. influenzae 54A1218, clinically derived non-serotype B strain (macrolide-susceptible, penicillin-resistant, TEM-1 beta-lactamase).

[6] = test system: Haemophilus influenzae 54A1100; assay: Murine acute infection (peritonitis) model challenged with Haemophilus influenzae; assay type: in vivo, mouse; settings: for Mice Surviving/Total: Q.D. [1 day]
[7] = test system: H. influenzae 54A1100; assay: MIC determination, H. influenzae 54A1100; assay type: cell-based, Haemophilus influenzae; settings: H. influenzae 54A1100
Method: as §1, §2

[8] = test system: Streptococcus pyogenes 02C0203; assay: Murine acute infection (peritonitis) model challenged with Streptococcus pyogenes; assay type: in vivo, mouse
[9] = test system: H. influenzae; settings: cited from earlier work
[10] = test system: H. influenzae; assay: Study 95-001 otitis media caused by H. influenzae; assay type: in vivo, human; settings: single intramuscular dose 50 mg/kg; 9 patients; follow-up
Method: Specimens for culture and susceptibility testing were obtained from the infected ear by tympanocentesis within 24 h of start of therapy. […] However, the study was evaluated using the breakpoints in the most recent set of guidelines.
To be a bacteriological cure, the MITT subject had to have a positive culture from the middle ear for S. pneumoniae, H influenzae, or M. catarrhalis. Eradication was defined as presumed eradication of pretreatment pathogen(s) based on signs/symptoms or unavailability of culturable material. All evaluable patients had only one of the bacterial species present at baseline. There was no bacteriological response data collected for 95–001. However, the clinical outcome by bacterial pathogen at follow-up (approximately 28 days after first visit) was collected. For patients with S. pneumoniae as the baseline pathogen, all treatment arms yielded 100% clinical cure when the investigators' evaluations that were missing are not included in the analysis. […] The comparator drug, ceftriaxone, had no failures out of 9 patients.

[11] = 1.56 mg/kg/day P.O., 2 day regimen
[12] = 3.12 mg/kg/day P.O., 1 day regimen
[13] = 6.25 mg/kg/day P.O., 2 day regimen
[14] = 25.0 mg/kg/day P.O., 2 day regimen
[15] = 50.0 mg/kg/day P.O., 1 day regimen
[16] = oral QD, murine pneumonia model
[17] = oral QD, murine peritonitis model

## CCC[C@@H]1C[C@@H](C(=O)N[C@@H]([C@H]2O[C@H](SC)[C@H](O)[C@@H](O)[C@H]2O)[C@H](C)Cl)N(C)C1 [clindamycin]
[1]; S. pneumoniae strains with erm(B)
  clindamycin MIC: 128 µg/mL
[1]; read-out: clindamycin MIC, S. pneumoniae strains confirmed as mef(A)
  MIC: < 0.06 µg/mL
[1]; read-out: clindamycin MIC, S. pneumoniae strains with erm(B)
  MIC: > 128 µg/mL

## CC[C@H]1OC(=O)[C@H](C)[C@@H](O[C@H]2C[C@@](C)(OC)[C@@H](O)[C@H](C)O2)[C@H](C)[C@@H](O[C@@H]2O[C@H](C)C[C@H](N(C)C)[C@H]2O)[C@](C)(OC)C[C@@H](C)C(=O)[C@H](C)[C@@H](O)[C@]1(C)O [Clarithromycin]
[2]
  ED50 One-Day Therapy: 99.8 mg/kg/therapy
  ED50 Three-Day Therapy: 87.5 mg/kg/therapy
  ED50 Two-Day Therapy: 103.0 mg/kg/therapy
[3]; 1.04 mg/kg/day P.O., 3 day regimen
  Mice Surviving/Total: 0/10
[3]; [11]
  Mice Surviving/Total: 0/10
[3]; [12]
  Mice Surviving/Total: 0/10
[3]; 4.2 mg/kg/day P.O., 3 day regimen
  Mice Surviving/Total: 0/10
[3]; [13]
  Mice Surviving/Total: 0/10
[3]; 16.7 mg/kg/day P.O., 3 day regimen
  Mice Surviving/Total: 0/10
[3]; [14]
  Mice Surviving/Total: 0/10
[3]; [15]
  Mice Surviving/Total: 1/10
[3]; 66.7 mg/kg/day P.O., 3 day regimen
  Mice Surviving/Total: 2/10
[3]; 100.0 mg/kg/day P.O., 2 day regimen
  Mice Surviving/Total: 1/10
[3]; 200.0 mg/kg/day P.O., 1 day regimen
  Mice Surviving/Total: 4/10
[3]; Dosing Regimen 1 day
  Oral PD50: >200 mg/kg/day
[3]; Dosing Regimen 2 days
  Oral PD50: >200 mg/kg/day
[3]; Dosing Regimen 3 days
  Oral PD50: >200 mg/kg/day
[3]; […] P.O., 1 day regimen
  Mice Surviving/Total: 1/10
[3]; all three q.d. regimens (1, 2, 3 days)
  PD50s: > 200 mg/kg
[3]; [16]
  ED50 One-Day Therapy: 270 mg/kg/therapy
  ED50 Three-Day Therapy: 338 mg/kg/therapy
  ED50 Two-Day Therapy: 327 mg/kg/therapy
[3]; previous data, BID administration over two days of therapy
  PD50s: 5 to 25 mg/kg
[4]
  ED50 One-Day Therapy: >200 mg/kg/therapy
  ED50 Three-Day Therapy: >200 mg/kg/therapy
  ED50 Two-Day Therapy: >200 mg/kg/therapy
[5]
  MIC: MIC 0.01-0.03 μg/ml
[6]; 3.12 mg/kg/day
  Mice Surviving/Total: 0/10
[6]; 50 mg/kg/day
  Mice Surviving/Total: 2/10
[6]; 200 mg/kg/day
  Mice Surviving/Total: 0/10
[6]; Dosing Regimen 1 day
  Oral PD50: >200 mg/kg/day
[6]; […]
  Mice Surviving/Total: 0/10
[6]; one therapeutic dose (one day regimen), s.c.
  PD50: > 200 mg/kg
[6]; [17]
  ED50 One-Day Therapy: >200 mg/kg/therapy
  ED50 Three-Day Therapy: >200 mg/kg/therapy
  ED50 Two-Day Therapy: >200 mg/kg/therapy
[7]; listed as Clanthromycin
  MIC: 8 µg/mL (≈ 10.7 µM)
[7]; Haemophilus influenzae, read-out: MIC
  MIC: 8 µg/mL (≈ 10.7 µM)
[8]; 0.20 mg/kg/day P.O., 3 day regimen
  Mice Surviving/Total: 0/10
[8]; 0.39 mg/kg/day P.O., 2 day regimen
  Mice Surviving/Total: 0/10
[8]; 0.78 mg/kg/day P.O., 1 day regimen
  Mice Surviving/Total: 0/10
[8]; 0.78 mg/kg/day P.O., 3 day regimen
  Mice Surviving/Total: 5/10
[8]; [11]
  Mice Surviving/Total: 8/10
[8]; [12]
  Mice Surviving/Total: 4/10
[8]; 3.12 mg/kg/day P.O., 3 day regimen
  Mice Surviving/Total: 9/10
[8]; [13]
  Mice Surviving/Total: 9/10
[8]; [14]
  Mice Surviving/Total: 8/10
[8]; [15]
  Mice Surviving/Total: 10/10
[8]; Dosing Regimen 1 day
  Oral PD50: 11.3 (3.1–19.4) mg/kg/day
[8]; Dosing Regimen 2 days
  Oral PD50: 2.2 (0.9–3.6) mg/kg/day
[8]; Dosing Regimen 3 days
  Oral PD50: 3.1 (2.6–3.7) mg/kg/day
[8]; […] P.O., 1 day regimen
  Mice Surviving/Total: 6/10
[8]; […] P.O., 3 day regimen
  Mice Surviving/Total: 10/10
[8]; [17]
  ED50 One-Day Therapy: 11.7^1 mg/kg/therapy
  ED50 Three-Day Therapy: 3.8 mg/kg/therapy
  ED50 Two-Day Therapy: 2.5 mg/kg/therapy

## CC=CC1=C(C(=O)O)N2C(=O)[C@@H](NC(=O)[C@H](N)c3ccc(O)cc3)[C@H]2SC1 [Cefprozil]
[9]
  success rate less than control (amoxicillin/clavulanic acid); presumptive bacterial/clinical cure outcomes (i.e., clinical success) at 10–16 days post-therapy: 17% less than control (amoxicillin/clavulanic

## CO/N=C(\C(=O)N[C@@H]1C(=O)N2C(C(=O)O)=C(CSc3nc(=O)c(=O)[nH]n3C)CS[C@H]12)c1csc(N)n1 [Ceftriaxone]
[10]
  failures: no failures
